Data taken from patent US8853196B2, “Aminochromane, aminothiochromane and amino-1,2,3,4-tetrahydroquinoline derivatives, pharmaceutical compositions containing them, and their use in therapy” (AbbVie Deutschland GmbH & Co. KG, priority 2011, dated 2014).

Tests used:
human GlyT1c transporter = biological target: T1, human GlyT1c transporter (Homo sapiens, UniProt P48067); assay: Radioligand binding assay using recombinant CHO cell membranes expressing human GlyT1; conditions: values given as upper bounds, read-out: radioligand binding Kiapp
T1 construct: expressed in transfected cells; host or cells: CHO cells (recombinant; membranes)
T1 sequence (P48067 1-706): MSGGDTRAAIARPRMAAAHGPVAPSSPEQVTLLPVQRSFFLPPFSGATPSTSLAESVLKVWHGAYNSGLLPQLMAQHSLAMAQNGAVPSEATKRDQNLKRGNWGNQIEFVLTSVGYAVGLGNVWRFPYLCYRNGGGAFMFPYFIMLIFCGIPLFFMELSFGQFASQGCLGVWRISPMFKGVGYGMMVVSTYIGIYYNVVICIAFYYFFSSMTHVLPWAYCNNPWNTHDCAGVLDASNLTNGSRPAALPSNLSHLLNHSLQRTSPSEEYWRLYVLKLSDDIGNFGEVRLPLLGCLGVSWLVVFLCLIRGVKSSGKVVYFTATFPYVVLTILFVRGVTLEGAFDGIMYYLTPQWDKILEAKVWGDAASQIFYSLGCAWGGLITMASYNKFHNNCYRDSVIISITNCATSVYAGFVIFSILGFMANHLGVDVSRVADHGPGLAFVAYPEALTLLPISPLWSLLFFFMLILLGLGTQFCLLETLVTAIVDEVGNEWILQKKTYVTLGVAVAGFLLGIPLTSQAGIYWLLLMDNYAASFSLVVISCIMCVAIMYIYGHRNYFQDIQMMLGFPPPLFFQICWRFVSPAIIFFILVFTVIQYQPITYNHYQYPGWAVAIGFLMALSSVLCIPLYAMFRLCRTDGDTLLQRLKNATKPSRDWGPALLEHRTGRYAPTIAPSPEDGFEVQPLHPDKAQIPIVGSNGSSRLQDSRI
Experimental: 2. Radioligand Binding Assays Using Recombinant CHO Cell Membranes Expressing Human GlyT1:
Radioligand binding to human GlyT1c transporter-expressing membranes was determined as described in Mezler et al., Molecular Pharmacology 74:1705-1715, 2008.

MDR1 (P-gp) = biological target: T2, MDR1 (P-gp) (Homo sapiens, UniProt P08183); assay: Efflux ratio by bidirectional transport in MDR1-MDCK cells; type: in vitro ADME; conditions: dog; MDR1-MDCK monolayers, 1 μM compound, HBSS pH 7.4, 1 h at 37 C; calculated from permeability coefficients
T2 construct: expressed in transfected cells; host or cells: Madin-Darby Canine Kidney Type II cells (MDR1-MDCK)
T2 sequence (P08183 whole entry, species assumed): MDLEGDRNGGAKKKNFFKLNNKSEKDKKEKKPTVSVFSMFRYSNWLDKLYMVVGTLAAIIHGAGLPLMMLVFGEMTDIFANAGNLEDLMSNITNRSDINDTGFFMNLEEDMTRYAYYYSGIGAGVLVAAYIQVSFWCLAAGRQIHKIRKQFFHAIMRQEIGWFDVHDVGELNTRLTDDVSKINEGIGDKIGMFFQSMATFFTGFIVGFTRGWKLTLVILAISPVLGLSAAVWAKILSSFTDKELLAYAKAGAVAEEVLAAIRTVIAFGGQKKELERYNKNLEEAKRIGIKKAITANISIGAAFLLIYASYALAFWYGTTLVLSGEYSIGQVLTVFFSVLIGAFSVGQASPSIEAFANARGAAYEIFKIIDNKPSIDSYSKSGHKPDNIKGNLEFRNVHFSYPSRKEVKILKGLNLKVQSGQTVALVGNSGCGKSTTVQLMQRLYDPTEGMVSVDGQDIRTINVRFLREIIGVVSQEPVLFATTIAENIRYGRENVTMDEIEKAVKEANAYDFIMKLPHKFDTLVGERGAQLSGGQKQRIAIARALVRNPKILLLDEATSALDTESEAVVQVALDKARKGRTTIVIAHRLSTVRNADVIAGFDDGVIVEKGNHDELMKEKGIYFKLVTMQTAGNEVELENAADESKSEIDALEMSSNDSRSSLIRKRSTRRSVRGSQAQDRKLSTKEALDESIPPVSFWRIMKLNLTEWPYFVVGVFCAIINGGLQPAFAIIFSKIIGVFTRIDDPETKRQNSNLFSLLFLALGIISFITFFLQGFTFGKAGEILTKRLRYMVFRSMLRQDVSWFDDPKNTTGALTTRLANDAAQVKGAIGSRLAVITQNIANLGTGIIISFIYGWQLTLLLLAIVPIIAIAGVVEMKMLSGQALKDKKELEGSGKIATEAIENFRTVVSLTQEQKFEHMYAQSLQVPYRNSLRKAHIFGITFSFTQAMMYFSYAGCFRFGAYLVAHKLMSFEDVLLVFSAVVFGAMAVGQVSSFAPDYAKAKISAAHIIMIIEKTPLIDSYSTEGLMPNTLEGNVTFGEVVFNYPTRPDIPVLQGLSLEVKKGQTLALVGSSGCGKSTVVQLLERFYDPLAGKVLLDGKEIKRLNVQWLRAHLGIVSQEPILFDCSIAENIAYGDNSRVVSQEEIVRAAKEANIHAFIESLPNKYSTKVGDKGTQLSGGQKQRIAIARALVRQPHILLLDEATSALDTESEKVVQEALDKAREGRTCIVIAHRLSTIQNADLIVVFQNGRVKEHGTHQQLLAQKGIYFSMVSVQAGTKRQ
Experimental: 3. Determination of Efflux Ratio Using Madin-Darby Canine Kidney Type II Cells
Bidirectional transport experiments were performed on Madin-Darby Canine Kidney Type II cells over-expressing multidrug resistance protein 1 (MDR1-MDCK) to evaluate the compounds as potential P-gp substrates.
Compounds were added at 1 μM in HBSS-pH 7.4 (hanks balanced salt solution) to either the apical or basolateral side of MDR1-MDCK cell monolayers grown on Millicell 96-Cell polycarbonate filters. Samples were collected from both apical and basolateral sides at time 0 and after 1 h incubation at 37 C, compounds concentrations were measured by HPLC/MS/MS and permeability coefficients were then determined in both transport directions. The efflux ratio was subsequently calculated from the permeability coefficient.

Row | SMILES | Ki (human GlyT1c transporter) [nM] | efflux ratio at 1 h, 1 μM (MDR1 (P-gp))
1 | CN[C@@H]1COc2ccc(CNS(=O)(=O)C3CCC3)cc2[C@@H]1Cc1ccccc1 (relative stereo) [Example 25, cis-Cyclobutanesulfonic acid (4-benzyl-3-methylamino-chroman-6-ylmethyl)-amide] | ≤ 100 | 1.4
2 | NC1COc2ccc(CNS(=O)(=O)c3ccoc3)cc2C1Cc1ccccc1 (stereo not shown) [Example 54, Furan-3-sulfonic acid (3-amino-4-benzyl-chroman-6-ylmethyl)-amide 2,2,2-trifluoroacetate] | ≤ 100 | 
3 | Cc1cc(S(=O)(=O)NCc2ccc3c(c2)C(Cc2ccccc2)C(N)CO3)n(C)n1 (stereo not shown) [Example 55, 2,5-Dimethyl-2H-pyrazole-3-sulfonic acid (3-amino-4-benzyl-chroman-6-ylmethyl)-amide 2,2,2-trifluoroacetate] | ≤ 10000 | 
4 | Cc1csc(S(=O)(=O)NCc2ccc3c(c2)C(Cc2ccccc2)C(N)CO3)c1 (stereo not shown) [Example 56, 4-Methyl-thiophene-2-sulfonic acid (3-amino-4-benzyl-chroman-6-ylmethyl)-amide 2,2,2-trifluoroacetate] | ≤ 100 | 
5 | CCn1cc(S(=O)(=O)NCc2ccc3c(c2)C(Cc2ccccc2)C(N)CO3)cn1 (stereo not shown) [Example 57, 1-Ethyl-1H-pyrazole-4-sulfonic acid (3-amino-4-benzyl-chroman-6-ylmethyl)-amide 2,2,2-trifluoroacetate] | ≤ 1000 | 
6 | Cc1ncc(S(=O)(=O)NCc2ccc3c(c2)C(Cc2ccccc2)C(N)CO3)n1C (stereo not shown) [Example 58, 2,3-Dimethyl-3H-imidazole-4-sulfonic acid (3-amino-4-benzyl-chroman-6-ylmethyl)-amide 2,2,2-trifluoroacetate] | ≤ 1000 | 
